Results on 1 substance are retold here after patent publication US20250290928A1, “METHOD, KIT AND DEVICE FOR DETECTING EXTRACELLULAR VESICLES” (priority 2022, published 2025).

The experiment has as its system MMP in the MDA-MB-231-derived extracellular vesicles. Briefly: Evaluation of MMP activity of MDA-MB-231-derived extracellular vesicles with 96-well plate (SensoLyte 520 MMP Substrate Sampler Kit). It counts as biochemical, Human. As to conditions: MP, EV 3.3 μg/mL. As to the method: 50 μL of the MMP detection solution was added to 50 μL of each of the samples, a reaction was performed at 30° C., and MMP activity was evaluated.
50 μL of each of the MMP detection solutions was added to 50 μL of each of the samples, a reaction was performed at 30° C., and MMP activity was evaluated.

No end group written: not given here. TQ3 = quencher

As for “TAMRA-GGPLGLAGGK(TQ3) ({TAMRA}-GGPLGLAGGK(TQ3)) [Custom #2T]”, the “Fluorescence change after 2 hours of reaction at 30° C.” value (“Fluorescence change after 2 hours” for short) (1.25 μM Custom #2T with 1.25 μM SB2) was 1,319 ΔRFU; the “Fluorescence change after 2 hours” value (1.25 μM Custom #2T with 1.25 μM SB6) is on record as 1,527 ΔRFU; the “Fluorescence change after 2 hours” value (1.25 μM Custom #2T with 1.25 μM SB7) is 626 ΔRFU; the “Fluorescence change after 2 hours” value (1.25 μM Custom #2T with 1.25 μM SB9) is listed as 469 ΔRFU; the “Fluorescence change after 2 hours” value (1.25 μM Custom #2T with 1.25 μM SB10) is 1,030 ΔRFU; the “Fluorescence change after 2 hours” value (5 μM Custom #2T with 5 μM SB2) is listed as 710 ΔRFU. For the same substance, the “Fluorescence change after 2 hours” value reads like this: (5 μM Custom #2T with 5 μM SB6) 1,161 ΔRFU; (5 μM Custom #2T with 5 μM SB7) 288 ΔRFU; (5 μM Custom #2T with 5 μM SB9) 153 ΔRFU; (5 μM Custom #2T with 5 μM SB10) 592 ΔRFU.
